From PubChem BioAssay AID1845209 (Molecular Pharmacology Branch, DTP, NCI, 2023)

Tested on: NCI-H211 tumor spheroids, viability percent test/control
Test: Anticancer human tumor NCI-H211 cell line growth inhibition;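 further: spheroids exposed to agents for seven days before readout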
Conditions: spheroids with HUVEC and MSC; for IC50: curve of first compound; for viability, T/C: stronger effect = lower value
In short: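 Single agents and combinations were tested on spheroids built from tumor cells plus HUVEC and hMSC, at half-log dilutions starting at or near clinical Cmax, else 10 microM; final DMSO 0.25% (v/v).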

Question: `CC(C)n1c(=O)n(C)c2cnc3cc(F)c(-c4ccc(OCCCN5CCCCC5)nc4)cc3c21` + Cn1nnc2c(C(N)=O)ncn2c1=O was tested. Which IC50 (second compound 1 µM) did it give?
Answer: Its IC50 is 662 nM.

Question: What about the IC50 (second compound 3.16 µM) of the same molecule?
Answer: The IC50 was 781 nM.

Question: What about the IC50 (second compound 10 µM) of the same molecule?
Answer: The IC50 was 118 nM.

Question: And the IC50 (second compound 31.6 µM)?
Answer: The IC50 was less than 31.6 nM.

Question: What about the IC50 (second compound 100 µM) of the same molecule?
Answer: Its IC50 is less than 31.6 nM.

Question: And the viability, T/C (second compound 1 µM, first compound 0.0316 µM)?
Answer: The viability, T/C was 70.8%.

Question: What about the viability, T/C (second compound 1 µM, first compound 0.1 µM) of the same molecule?
Answer: Its viability, T/C is 69.4%.

Question: What about the viability, T/C (second compound 1 µM, first compound 0.316 µM) of the same molecule?
Answer: Its viability, T/C is 54%.

Question: And the viability, T/C (second compound 1 µM, first compound 1 µM)?
Answer: Its viability, T/C is 48.1%.

Question: What about the viability, T/C (second compound 1 µM, first compound 3.16 µM) of the same molecule?
Answer: Its viability, T/C is 28.4%.

Question: And the viability, T/C (second compound 1 µM, first compound 10 µM)?
Answer: Its viability, T/C is 9.99%.

Question: What about the viability, T/C (second compound 3.16 µM, first compound 0.0316 µM) of the same molecule?
Answer: The viability, T/C was 66%.

Question: What about the viability, T/C (second compound 3.16 µM, first compound 0.1 µM) of the same molecule?
Answer: Its viability, T/C is 66.1%.

Question: And the viability, T/C (second compound 3.16 µM, first compound 0.316 µM)?
Answer: Its viability, T/C is 63.8%.

Question: What about the viability, T/C (second compound 3.16 µM, first compound 1 µM) of the same molecule?
Answer: Its viability, T/C is 42.6%.

Question: And the viability, T/C (second compound 3.16 µM, first compound 3.16 µM)?
Answer: Its viability, T/C is 30.7%.

Question: And the viability, T/C (second compound 3.16 µM, first compound 10 µM)?
Answer: Its viability, T/C is 8.69%.

Question: What about the viability, T/C (second compound 10 µM, first compound 0.0316 µM) of the same molecule?
Answer: Its viability, T/C is 61.6%.

Question: And the viability, T/C (second compound 10 µM, first compound 0.1 µM)?
Answer: The viability, T/C was 52.2%.

Question: And the viability, T/C (second compound 10 µM, first compound 0.316 µM)?
Answer: The viability, T/C was 35.7%.

Question: What about the viability, T/C (second compound 10 µM, first compound 1 µM) of the same molecule?
Answer: Its viability, T/C is 34.7%.

Question: What about the viability, T/C (second compound 10 µM, first compound 3.16 µM) of the same molecule?
Answer: The viability, T/C was 20.3%.

Question: What about the viability, T/C (second compound 10 µM, first compound 10 µM) of the same molecule?
Answer: The viability, T/C was 4.95%.

Question: And the viability, T/C (second compound 31.6 µM, first compound 0.0316 µM)?
Answer: Its viability, T/C is 19.9%.

Question: What about the viability, T/C (second compound 31.6 µM, first compound 0.1 µM) of the same molecule?
Answer: Its viability, T/C is 16.5%.

Question: And the viability, T/C (second compound 31.6 µM, first compound 0.316 µM)?
Answer: The viability, T/C was 10.7%.

Question: What about the viability, T/C (second compound 31.6 µM, first compound 1 µM) of the same molecule?
Answer: The viability, T/C was 8.57%.

Question: What about the viability, T/C (second compound 31.6 µM, first compound 3.16 µM) of the same molecule?
Answer: Its viability, T/C is 5.7%.

Question: And the viability, T/C (second compound 31.6 µM, first compound 10 µM)?
Answer: Its viability, T/C is 0.75%.

Question: And the viability, T/C (second compound 100 µM, first compound 0.0316 µM)?
Answer: The viability, T/C was 4.09%.

Question: What about the viability, T/C (second compound 100 µM, first compound 0.1 µM) of the same molecule?
Answer: The viability, T/C was 3.62%.

Question: And the viability, T/C (second compound 100 µM, first compound 0.316 µM)?
Answer: Its viability, T/C is 2.44%.

Question: And the viability, T/C (second compound 100 µM, first compound 1 µM)?
Answer: The viability, T/C was 1.96%.

Question: And the viability, T/C (second compound 100 µM, first compound 3.16 µM)?
Answer: The viability, T/C was 1.15%.

Question: What about the viability, T/C (second compound 100 µM, first compound 10 µM) of the same molecule?
Answer: Its viability, T/C is 0.49%.

Question: What does the source list for `Cc1sc2c(c1C)C(c1ccc(Cl)cc1)=NC(CC(=O)Nc1ccc(O)cc1)c1nnc(C)n1-2` (stereo not given) + Cn1nnc2c(C(N)=O)ncn2c1=O?
Answer: IC50 (second compound 1 µM): < 9.49 nM; IC50 (second compound 3.16 µM): < 9.49 nM; IC50 (second compound 10 µM): < 9.49 nM; IC50 (second compound 31.6 µM): < 9.49 nM; IC50 (second compound 100 µM): < 9.49 nM; viability, T/C (second compound 1 µM, first compound 0.00949 µM): 25.5%; viability, T/C (second compound 1 µM, first compound 0.03 µM): 2.24%; viability, T/C (second compound 1 µM, first compound 0.0949 µM): 0.88%; viability, T/C (second compound 1 µM, first compound 0.3 µM): 0.67%; viability, T/C (second compound 1 µM, first compound 0.949 µM): 0.78%; viability, T/C (second compound 1 µM, first compound 3 µM): 0.72%; viability, T/C (second compound 3.16 µM, first compound 0.00949 µM): 36.7%; viability, T/C (second compound 3.16 µM, first compound 0.03 µM): 3.37%; viability, T/C (second compound 3.16 µM, first compound 0.0949 µM): 0.97%; viability, T/C (second compound 3.16 µM, first compound 0.3 µM): 0.76%; viability, T/C (second compound 3.16 µM, first compound 0.949 µM): 0.66%; viability, T/C (second compound 3.16 µM, first compound 3 µM): 0.82%; viability, T/C (second compound 10 µM, first compound 0.00949 µM): 31.8%; viability, T/C (second compound 10 µM, first compound 0.03 µM): 1.97%; viability, T/C (second compound 10 µM, first compound 0.0949 µM): 1.15%; viability, T/C (second compound 10 µM, first compound 0.3 µM): 0.79%; viability, T/C (second compound 10 µM, first compound 0.949 µM): 0.76%; viability, T/C (second compound 10 µM, first compound 3 µM): 0.74%; viability, T/C (second compound 31.6 µM, first compound 0.00949 µM): 22%; viability, T/C (second compound 31.6 µM, first compound 0.03 µM): 1.97%; viability, T/C (second compound 31.6 µM, first compound 0.0949 µM): 1.02%; viability, T/C (second compound 31.6 µM, first compound 0.3 µM): 0.79%; viability, T/C (second compound 31.6 µM, first compound 0.949 µM): 0.71%; viability, T/C (second compound 31.6 µM, first compound 3 µM): 0.82%; viability, T/C (second compound 100 µM, first compound 0.00949 µM): 6.77%; viability, T/C (second compound 100 µM, first compound 0.03 µM): 1.61%; viability, T/C (second compound 100 µM, first compound 0.0949 µM): 1.08%; viability, T/C (second compound 100 µM, first compound 0.3 µM): 1.09%; viability, T/C (second compound 100 µM, first compound 0.949 µM): 0.86%; viability, T/C (second compound 100 µM, first compound 3 µM): 1.03%
